In publication PMC4628094, “In Vitro Assessment of Uptake and Lysosomal Sequestration of Respiratory Drugs in Alveolar Macrophage Cell Line NR8383” (Pharmaceutical Research, 2015):
Counter-ions that a name gives are not always drawn. Like-named read-outs stand apart in the source and are kept apart here. Marks after values point to notes of the source that are not given here.

Assays:
[1] = system: Liver tissue slices from male Wistar rats; set-up: method as in ref (14) (a number printed in a supplementary file, which may have a reference list of its own: not looked up in the article's list); settings: monensin 10 µM, drug 5 µM, 60 min, ref (14); cited from earlier work
[2] = system: Liver tissue slices from male Wistar rats; set-up: method as in ref (5) (a number printed in a supplementary file, which may have a reference list of its own: not looked up in the article's list); settings: NH4Cl 20 mM, drug 5 µM, 60 min, ref (5); cited from earlier work
[3] = system: Lung tissue slices from male Wistar rats; set-up: method as in ref (14) (a number printed in a supplementary file, which may have a reference list of its own: not looked up in the article's list); settings: monensin 10 µM, drug 5 µM, 60 min, ref (14); cited from earlier work
[4] = system: Lung tissue slices from male Wistar rats; set-up: method as in ref (5) (a number printed in a supplementary file, which may have a reference list of its own: not looked up in the article's list); settings: NH4Cl 20 mM, drug 5 µM, 60 min, ref (5); cited from earlier work
[5] = Physicochemical properties, experimental literature values (Table I); settings: classification in Table I
[6] = system: NR8383 cells; assay: Lysosomal sequestration studies in NR8383 with NH4Cl, monensin and nigericin; settings: for % Reduction in Kp by NH4Cl: NH4Cl 20 mM; for reduction in Kp in the presence of chemical agents (summary in Discussion): NR8383, NH4Cl, monensin, nigericin
Description: (§1) The extent of accumulation of drugs in lysosomes was assessed using the same uptake methodology, as described above in the absence and presence of NH4Cl and ionophores, monensin and nigericin. […] In addition, a range of incubation conditions was explored, including pre-incubation and co-incubation alone and combined together. Once the conditions were optimised, further experiments were performed with 20 mM NH4Cl co-incubated with investigated drugs. […] For incubations with monensin and nigericin, all drugs were prepared at 5 μM concentration and the incubations were carried out for 5 min (single time point). Following the treatment of the cell monolayers with drug alone or drug with the agents mentioned, incubations were stopped by washing of the cells with ice-cold DPBS as described above, followed by cell lysis in deionised water. All incubations were carried out in duplicate and experiments were performed for three separate occasions. The removed incubation media were retained for the measurement of drug concentrations and subsequent determination of Kp for each compound. Analysis of samples in LC-MS/MS was performed after cells were kept at −20°C overnight.
(§2) Kp and CLuptake were determined as described above for each drug both under control condition and in the presence of a chemical agent affecting the pH gradient between cytosol and lysosomes. The reduction in Kp and CLuptake of each drug in the presence of the chemical agents was expressed as a percentage relative to control and used as an indicator of the extent of lysosomal sequestration. A 50% reduction in both parameters was set as a cut-off for lysosomal accumulation, while also taking into account the physicochemical properties of the compounds (Table I) and the uncertainty associated with the experimental data.
(§3) The in vitro parameters were calculated on at least three separate occasions and the mean data were reported. When assessing the extent of lysosomal sequestration, the control and chemical agent treated cells were compared using the two-tailed, paired t-test in order to determine statistically significant difference between the two conditions. Values were reported as significant when p < 0.05.

[7] = as above; settings: rat; for Kp at 10 min, 5 μM: NR8383, 5 μM drug; for Kp at 10 min, 20 µM: NR8383, 20 µM drug
Description: as §1, §2, §3

[8] = cited from earlier work
[9] = system: NR8383 cells; assay: Drug uptake in NR8383 at 37 and 4°C (CLuptake, CLdiff, Kp); settings: NR8383, 5 μM; for Contribution of passive (%): CLdiff relative to CLuptake
Description: (§4) The studies were carried out in a 24-well plate format and the in vitro conditions were optimised in terms of cell detachment method from culture flasks, coating type of 24-well plates, seeding density, culturing time and drug incubation time points. Briefly, for cell detachment, gentle scraping versus Mg^2+-Ca^2+ free DPBS treatment of cells in culture flasks were tested. Considering the semi-adherent nature of AMs, cell seeding into non-coated, collagen-I and poly-D-lysine coated 24-well plates was investigated for cell attachment, distribution in the wells and detachment following DPBS washes during the uptake experiments. In addition, seeding densities of 0.36 and 0.72 × 10^6 cells per well were assessed with respect to cell attachment, confluency following culture (plating efficiency) and potential cell detachment following DPBS washes. Culturing time ranging from 4 to 24 h was investigated for optimal cell attachment before carrying out uptake experiments. Uptake rate and Kp data were normalised by cell number determined indirectly by measuring the amount of protein in samples by bicinchoninic acid (BCA) protein assay (Thermo Scientific, Loughborough, UK). Following the optimisation, detachment of NR8383 from cell culture flasks was performed by gentle scraping prior to cell counting and seeding into collagen-I coated 24-well plates at 0.5 × 10^6 cells per well. Cells were cultured for 16 h at 37°C, 5% CO2 (CO2 incubator, MCO-17AIC, Sanyo Biomedical, Loughborough, UK) before uptake studies performed over 1 to 10 min period.
(§5) The drug uptake in NR8383 corresponding to these conditions was described by total uptake (CLuptake) and passive diffusion (CLdiff) clearance terms, respectively. […] Substrate solutions were prepared by dilution of the stock solutions in DPBS resulting in final DMSO content < 1%. Uptake studies were performed in the presence of 1 mM ABT, a nonspecific P450 inhibitor, in order to avoid any potential impact of phase I metabolism. […] Following microscopy, the CGM was removed, cells were washed twice with 800 μL of either pre-warmed or ice-cold DPBS (for experiments at 37 and 4°C, respectively) and pre-incubation with 500 μL of pre-warmed or ice-cold ABT/DPBS was carried out for 20 min. Where ABT pre-treatment was not necessary, cell monolayers were treated with 500 μL of DPBS only. Once pre-incubation buffer was removed from the cell monolayers, incubations were started by addition of 400 μL of substrate solution (pre-warmed or ice-cold) in each well. Each substrate was incubated with the cells for 1, 2, 5 and 10 min and each time point at 37°C and 4°C. For 37°C experiments, incubation was carried out on a dry heater block maintained at 37°C throughout the experiment (Tecam Dri-block DB-3, Tecam, Princeton, NJ) and for 4°C experiments, the procedure was carried out on ice. Incubation with substrate was stopped by removal of the media with drug solution and washing the monolayers three times with 800 μL ice-cold DPBS. The back-diffusion of the drug from the cell into the medium was considered to be negligible under these conditions. The removed incubation media were retained for the measurement of drug medium concentrations and subsequent determination of Kp for each drug. The cells were lysed by addition of 200 μL ice-cold deionised water; cell lysates were kept at −20°C overnight and then processed further for LC-MS/MS analysis. Experiments were performed on three or more separate occasions for each drug investigated. […] The amount of protein per well was measured using a BSA calibration curve and absorbances read at 562 nm (S22 Boeco UV-Visible Spectrophotometer, Hamburg, Germany).

[10] = as above; settings: rat
Description: as §4, §5

[11] = system: NR8383 cells; assay: LysoTracker Red (LTR) confocal assessment of lysosomal sequestration in NR8383; format: cell-based, rat; settings: NH4Cl 20 mM, monensin 5 μM, nigericin 10 μM with 200 nM LTR
[12] = system: Lung tissue slices from male Wistar rats; set-up: method as in ref (9) (a number printed in a supplementary file, which may have a reference list of its own: not looked up in the article's list); settings: NH4Cl 20 mM, drug 5 µM, 60 min, ref (9); cited from earlier work
[13] = system: Liver tissue slices from male Wistar rats; set-up: method as in ref (9) (a number printed in a supplementary file, which may have a reference list of its own: not looked up in the article's list); settings: NH4Cl 20 mM, drug 5 µM, 60 min, ref (9); cited from earlier work
[14] = system: Lung tissue slices from male Wistar rats; set-up: method as in ref (8) (a number printed in a supplementary file, which may have a reference list of its own: not looked up in the article's list); settings: NH4Cl 20 mM, drug 5 µM, 60 min, ref (8); cited from earlier work
[15] = system: Liver tissue slices from male Wistar rats; set-up: method as in ref (8) (a number printed in a supplementary file, which may have a reference list of its own: not looked up in the article's list); settings: NH4Cl 20 mM, drug 5 µM, 60 min, ref (8); cited from earlier work
[16] = system: Lung granule fraction containing lysosomes from male Wistar rats; set-up: method as in ref (6) (a number printed in a supplementary file, which may have a reference list of its own: not looked up in the article's list); settings: NH4Cl 10 mM, drug 1 µM, 10 min; ref (6); cited from earlier work
[17] = experimental value, ref ([21])-([30]) per drug, Table I
[18] = NR8383 cells, Kp + NH4Cl, 20 mM NH4Cl co-incubated, 10 min
[19] = NR8383 cells, Kp + NH4Cl, 20 mM NH4Cl
[20] = NR8383 cells, Kp Control, control
[21] = NR8383 cells, Kp (cell-to-medium concentration ratio), NR8383, 5 μM, 37°C, 10 min

Structure (SMILES): NC(=O)N1c2ccccc2C=Cc2ccccc21 [Carbamazepine]
- Reduction of total uptake (%) [1]: 0%
- Reduction in total uptake (%) [2]: 16.1%
- Reduction of total uptake (%) [3]: 5.4%
- Reduction in total uptake (%) [4]: 5.4%

Structure (SMILES): CC(Cc1ccc(O)cc1)NCC(O)c1cc(O)cc(O)c1 (centres unmarked) [Fenoterol]
- Acid–base Property [5]: Base
- % Reduction in Kp by NH4Cl ([6]; NR8383, 5 μM drug): 31 ± 23%
- % Reduction in Kp by Monensin ([6]; NR8383, 5 μM drug, monensin 5 μM, 5 min): 27 ± 25%
- % Reduction in Kp by Nigericin ([6]; NR8383, 5 μM drug, nigericin 10 μM, 5 min): 30 ± 12%
- % Reduction in Kp by NH4Cl ([6]; NR8383, 20 µM drug): 27 ± 24%
- % Reduction in CLuptake by Monensin (5 µM) ([6]; NR8383, at 5 µM drug): 29 ± 21%
- % Reduction in CLuptake by NH4Cl (20 mM) ([6]; NR8383, at 5 µM drug): 36 ± 12%
- % Reduction in CLuptake by Nigericin (10 µM) ([6]; NR8383, at 5 µM drug): 25 ± 15%
- % Reduction in CLuptake by NH4Cl (20 mM) ([6]; NR8383, at 20 µM drug): 22 ± 28%
- reduction in Kp in the presence of chemical agents (summary in Discussion) [6]: 20–40%
- Kp at 10 min, 5 μM ([7]; Kp + NH4Cl, 20 mM NH4Cl co-incubated, 10 min): 2.91 ± 2.11
- Kp at 10 min, 20 µM ([7]; Kp + NH4Cl, 20 mM NH4Cl): 0.96 ± 0.33
- Kp at 10 min, 5 μM ([7]; Kp Control, control): 4.25 ± 2.64
- Kp at 10 min, 20 µM ([7]; Kp Control, control): 1.5 ± 0.93
- LogD7.4 [8, 17]: 0.74
- Contribution of passive (%) [9]: 8.03%
- Kp at 10 min, 5 μM [10]: 5.69 ± 0.98
- hepatocyte CLint at 5 μM ([10]; other cell line): < 1 µL/min/1e6 cells

Structure (SMILES): CC[C@@]1([C@@H]2O[C@@H]([C@H]3O[C@@](O)(CO)[C@H](C)C[C@@H]3C)C[C@@H]2C)CC[C@H]([C@]2(C)CC[C@]3(C[C@H](O)[C@@H](C)[C@@H]([C@@H](C)[C@@H](OC)[C@H](C)C(=O)O)O3)O2)O1 [monensin, monensin sodium salt]
- reduced LTR fluorescent signal [11]: up to 85%

Structure (SMILES): C[N+]1(C)[C@@H]2C[C@@H](OC(=O)C(O)(c3cccs3)c3cccs3)C[C@H]1[C@@H]1O[C@@H]12 [Tiotropium bromide]
- Acid–base Property [5]: Permanently cationic
- % Reduction in Kp by NH4Cl ([6]; NR8383, 5 μM drug): 12 ± 1.8%
- % Reduction in Kp by NH4Cl ([6]; NR8383, 20 µM drug): 35 ± 26%
- % Reduction in CLuptake by NH4Cl (20 mM) ([6]; NR8383, at 5 µM drug): 15 ^a %
- % Reduction in CLuptake by NH4Cl (20 mM) ([6]; NR8383, at 20 µM drug): 28 ^a %
- reduction in Kp in the presence of chemical agents (summary in Discussion) [6]: < 15%
- Kp at 10 min, 5 μM [7, 18]: 3.87 ± 2.61
- Kp at 10 min, 20 µM [7, 19]: 2 ± 0.64
- Kp at 10 min, 5 μM [7, 20]: 4.39 ± 2.9
- Kp at 10 min, 20 µM [7, 20]: 2.4 ± 1
- Contribution of passive (%) [9]: 16.3%
- Kp at 10 min, 5 μM [10, 21]: 8.74 ± 7.24

Structure (SMILES): CO[C@@H]1C[C@@H](C[C@H]2CC[C@H](C)[C@H]([C@@H](C)C(=O)O)O2)O[C@]2(O[C@](C)([C@H]3CC[C@@](C)([C@@H]4O[C@@H]([C@H]5O[C@@](O)(CO)[C@H](C)C[C@@H]5C)C[C@@H]4C)O3)C[C@H]2C)[C@@H]1C [nigericin, nigericin sodium salt]
- reduced LTR fluorescent signal [11]: up to 85%

Structure (SMILES): CN[C@H]1CC[C@@H](c2ccc(Cl)c(Cl)c2)c2ccccc21 [Sertraline]
- Reduction of total uptake (%) [1]: 19%
- Reduction in total uptake (%) [12]: 45%
- Reduction in total uptake (%) [13]: 29%
- Reduction of total uptake (%) [3]: 50%
- Reduction in total uptake (%) [14]: 40%
- Reduction in total uptake (%) [4]: 42%
- Reduction in total uptake (%) [15]: 42%

Structure (SMILES): CC(C)=CCN1CCC2(C)c3cc(O)ccc3CC1C2C (centres unmarked) [Pentazocine]
- Reduction in total uptake (%) [16]: 77%

Structure (SMILES): CC(C)(C)NCC(O)c1cc(O)cc(O)c1 (centres unmarked) [Terbutaline]
- Acid–base Property [5]: Base
- % Reduction in Kp by NH4Cl ([6]; NR8383, 5 μM drug): 21 ± 5.0%
- % Reduction in Kp by NH4Cl ([6]; NR8383, 20 µM drug): 22^ a %
- % Reduction in CLuptake by NH4Cl (20 mM) ([6]; NR8383, at 5 µM drug): 15 ± 15%
- % Reduction in CLuptake by NH4Cl (20 mM) ([6]; NR8383, at 20 µM drug): 36 ± 23%
- reduction in Kp in the presence of chemical agents (summary in Discussion) [6]: 20–40%
- Kp at 10 min, 5 μM [7, 18]: 0.72 ± 0.31
- Kp at 10 min, 20 µM [7, 19]: 0.56 ± 0.29
- Kp at 10 min, 5 μM [7, 20]: 0.92 ± 0.39
- Kp at 10 min, 20 µM [7, 20]: 0.79 ± 0.46
- LogD7.4 ([8]; Average value of two studies, ref ([27],[28])): −1.50 ^b
- pKa_a (acidic pKa) [8, 17]: 8.60
- pKa_b (basic pKa) [8, 17]: 9.90
- Kp (cell-to-medium concentration ratio) ([9]; 37°C, 10 min): 0.69 ± 0.16
- Contribution of passive (%) [9]: 47.6%
- hepatocyte CLint at 5 μM ([10]; NR8383 cells): < 1 µL/min/1e6 cells
- Kp at 10 min, 5 μM [10, 21]: ~1

Structure (SMILES): CNCCC(Oc1ccc(C(F)(F)F)cc1)c1ccccc1 (centres unmarked) [Fluoxetine]
- Reduction in total uptake (%) [12]: 39%
- Reduction of total uptake (%) [3]: 23%
- Reduction in total uptake (%) [14]: 41%
- Reduction in total uptake (%) [4]: 21%
